Where “and” joins values, the source holds several entries; their conditions need not be identical. Equal entries are not always repeated. Inconclusive results and toxic doses are left out. How the source made its calls: active means survival T/C of 150% or more; inactive means T/C below 125% in these data. Where a SMILES comes first, the peptide text is derived from it. The star is where a group is joined. Boc = CC(C)(C)OC(=O)*
Test system: B6C3F1 mice, B16 melanoma ip, median survival T/C
Test: NCI In Vivo Anticancer Drug Screen. Data for tumor model B16 Melanoma (intraperitoneal) in B6C3F1 mice
Settings: endpoint: median survival time, higher = longer survival
Outline: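 Mice bearing transplanted tumor were dosed with compound or vehicle, and survival was recorded. Activity is expressed as the treated-group measurement (T) divided by the vehicle control measurement (C).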

[1] = dose: 50.0 mg/kg/injection, schedule: Q01DX009 (ip), vehicle: saline with Tween-80
[2] = dose: 100.0 mg/kg/injection, schedule: Q01DX009 (ip), vehicle: saline with Tween-80
[3] = dose: 12.5 mg/kg/injection, schedule: Q01DX009 (ip), vehicle: Klucel (hydroxypropylcellulose) (HPC)
[4] = dose: 25.0 mg/kg/injection, schedule: Q01DX009 (ip), vehicle: Klucel (hydroxypropylcellulose) (HPC)
[5] = dose: 50.0 mg/kg/injection, schedule: Q01DX009 (ip), vehicle: Klucel (hydroxypropylcellulose) (HPC)
[6] = dose: 100.0 mg/kg/injection, schedule: Q01DX009 (ip), vehicle: Klucel (hydroxypropylcellulose) (HPC)
[7] = dose: 200.0 mg/kg/injection, schedule: Q01DX009 (ip), vehicle: Klucel (hydroxypropylcellulose) (HPC)
[8] = dose: 5.0 mg/kg/injection, schedule: Q01DX009 (ip), vehicle: saline
[9] = dose: 10.0 mg/kg/injection, schedule: Q01DX009 (ip), vehicle: saline
[10] = dose: 12.5 mg/kg/injection, schedule: Q01DX009 (ip), vehicle: saline with Tween-80
[11] = dose: 25.0 mg/kg/injection, schedule: Q01DX009 (ip), vehicle: saline with Tween-80
[12] = dose: 1.56 mg/kg/injection, schedule: Q01DX009 (ip), vehicle: saline
[13] = dose: 6.25 mg/kg/injection, schedule: Q01DX009 (ip), vehicle: saline
[14] = dose: 12.5 mg/kg/injection, schedule: Q01DX009 (ip), vehicle: saline
[15] = dose: 25.0 mg/kg/injection, schedule: Q01DX009 (ip), vehicle: saline
[16] = dose: 400.0 mg/kg/injection, schedule: Q01DX009 (ip), vehicle: Klucel (hydroxypropylcellulose) (HPC)

Measured: T/C

O=C1c2ccccc2CCC1Br (stereo not given)
inactive: dose: 1.5 mg/kg/injection, schedule: Q01DX009 (ip), vehicle: DMSO 87 % of control | dose: 3.0 mg/kg/injection, schedule: Q01DX009 (ip), vehicle: DMSO 86 % of control and 87 % of control | dose: 6.0 mg/kg/injection, schedule: Q01DX009 (ip), vehicle: DMSO 91 % of control | dose: 12.0 mg/kg/injection, schedule: Q01DX009 (ip), vehicle: DMSO 94 % of control

COC(C(=O)C(O)C(C)O)C1CC2C=C3C=C(OC4CC(OC5CC(O)C(OC)C(C)O5)C(OC(C)=O)C(C)O4)C(C)C(=O)C3=C(O)C2=C(O)C1OC1CC(OC2CC(OC3CC(C)(O)C(OC(=O)C(C)C)C(C)O3)C(O)C(C)O2)C(O)C(C)O1 (stereo not given)
active: dose: 62.5 micrograms/kg/injection, schedule: Q01DX009 (ip), vehicle: saline 155 % of control

COc1ccc(C(=O)CC2CCCC(CC(=O)c3ccc(OC)cc3)N2C)cc1 (stereo not given)
inactive: [1] 103 % of control | [2] 101 % of control

COC1/C=C/C=C(/C)Cc2cc(O)c(Cl)c(c2)N(C)C(=O)CC(OC(=O)C(C)C)C2(C)OC2C(C)C2CC1(O)NC(=O)O2 (stereo not given)
active: dose: 0.25 mg/kg/injection, schedule: Q01DX009 (ip), vehicle: saline + alcohol 155 % of control | dose: 0.5 mg/kg/injection, schedule: Q01DX009 (ip), vehicle: saline + alcohol 150 % of control | dose: 400.0 micrograms/kg/injection, schedule: Q01DX009 (ip), vehicle: saline + alcohol 151 % of control
inactive: dose: 25.0 micrograms/kg/injection, schedule: Q01DX009 (ip), vehicle: saline + alcohol 120 % of control

Oc1c(Cl)cc(C(c2cc(Cl)c(O)c(Cl)c2)C(c2cc(Cl)c(O)c(Cl)c2)c2cc(Cl)c(O)c(Cl)c2)cc1Cl
inactive: [3] 88 % of control and 100 % of control | [4] 92 % of control and 99 % of control | [5] 93 % of control and 101 % of control | [6] 93 % of control and 101 % of control | [7] 104 % of control

CC(C)CC(NC(=O)CF)C(=O)O (stereo not given)
inactive: dose: 0.31 mg/kg/injection, schedule: Q01DX009 (ip), vehicle: saline 95 % of control | dose: 0.63 mg/kg/injection, schedule: Q01DX009 (ip), vehicle: saline 93 % of control | dose: 1.25 mg/kg/injection, schedule: Q01DX009 (ip), vehicle: saline 90 % of control | dose: 2.5 mg/kg/injection, schedule: Q01DX009 (ip), vehicle: saline 89 % of control | [8] 96 % of control | [9] 100 % of control

Nc1nc2nc[nH]c2c(=O)[nH]1
inactive: dose: 6.25 mg/kg/injection, schedule: Q01DX009 (ip), vehicle: saline with Tween-80 116 % of control | [10] 105 % of control | [11] 104 % of control | [1] 102 % of control | [2] 90 % of control

CC[N](CC)[Ge]([CH2]C)[CH2]C.CC[N](CC)[Ge]([CH2]C)[CH2]C
inactive: [12] 106 % of control | dose: 3.12 mg/kg/injection, schedule: Q01DX009 (ip), vehicle: saline 103 % of control | [13] 103 % of control | [14] 107 % of control | [15] 108 % of control

COc1ccc2c(NCCCCCCNc3c4ccccc4nc4cc(OC)ccc34)c3ccccc3nc2c1
inactive: dose: 39.0 micrograms/kg/injection, schedule: Q01DX009 (ip), vehicle: lactic acid 108 % of control | dose: 78.0 micrograms/kg/injection, schedule: Q01DX009 (ip), vehicle: lactic acid 90 % of control

Cc1ccc(S(=O)(=O)NC(=O)OC23COCN2COC3)cc1
inactive: [10] 112 % of control and 113 % of control | [11] 108 % of control and 106 % of control | [1] 118 % of control | [2] 104 % of control | dose: 200.0 mg/kg/injection, schedule: Q01DX009 (ip), vehicle: saline with Tween-80 105 % of control | dose: 400.0 mg/kg/injection, schedule: Q01DX009 (ip), vehicle: saline with Tween-80 111 % of control and 122 % of control

CN(C)N=Nc1cn[nH]c1C(N)=O
inactive: [3] 98 % of control | [4] 91 % of control | [5] 96 % of control | [6] 87 % of control | [7] 89 % of control | [16] 86 % of control

CCCCCC(=O)O[C@]1(C(C)=O)CC[C@H]2[C@@H]3CCC4=CC(=O)CC[C@]4(C)[C@H]3CC[C@@]21C
inactive: [3] 97 % of control and 101 % of control | [4] 100 % of control and 104 % of control | [5] 96 % of control and 98 % of control | [6] 99 % of control and 100 % of control | [7] 97 % of control and 100 % of control | [16] 91 % of control and 97 % of control

ClCC[Se](Cl)(Cl)c1ccccc1
inactive: dose: 1.5 mg/kg/injection, schedule: Q01DX009 (ip), vehicle: saline 102 % of control | [12] 113 % of control | dose: 3.0 mg/kg/injection, schedule: Q01DX009 (ip), vehicle: saline 116 % of control | dose: 6.0 mg/kg/injection, schedule: Q01DX009 (ip), vehicle: saline 108 % of control

Oc1ccccc1C=NCCC[N-]CCCN=Cc1ccccc1O.[Co]
inactive: dose: 6.25 mg/kg/injection, schedule: Q01DX008 (ip), vehicle: saline 97 % of control | [13] 101 % of control | dose: 12.5 mg/kg/injection, schedule: Q01DX008 (ip), vehicle: saline 107 % of control | [14] 107 % of control | dose: 25.0 mg/kg/injection, schedule: Q01DX008 (ip), vehicle: saline 96 % of control | [15] 113 % of control | dose: 50.0 mg/kg/injection, schedule: Q01DX008 (ip), vehicle: saline 86 % of control | dose: 50.0 mg/kg/injection, schedule: Q01DX009 (ip), vehicle: saline 105 % of control | dose: 100.0 mg/kg/injection, schedule: Q01DX008 (ip), vehicle: saline 95 % of control

CSCCC(NC(=O)C(CC(C)C)NC(=O)OC(C)(C)C)C(N)=O (stereo not drawn) (Boc-Leu-Met-NH2; configuration not given here)
inactive: [5] 86 % of control | [6] 98 % of control and 102 % of control | [7] 97 % of control and 100 % of control | [16] 101 % of control

c1ccc(-c2nn(-c3ccccc3)[n+](-c3ccccc3-c3ccccc3)n2)cc1
inactive: [8] 108 % of control | [9] 99 % of control | dose: 20.0 mg/kg/injection, schedule: Q01DX009 (ip), vehicle: saline 101 % of control

CC#CCOCC(O)CCl (stereo not given)
inactive: dose: 25.0 mg/kg/injection, schedule: Q01DX009 (ip), vehicle: suspension in saline 96 % of control | dose: 50.0 mg/kg/injection, schedule: Q01DX009 (ip), vehicle: suspension in saline 105 % of control | dose: 100.0 mg/kg/injection, schedule: Q01DX009 (ip), vehicle: suspension in saline 106 % of control | dose: 200.0 mg/kg/injection, schedule: Q01DX009 (ip), vehicle: suspension in saline 102 % of control

NCCCNCCCCNC(=O)C(O)NC(=O)CCCCCCN=C(N)N (stereo not given)
inactive: [13] 108 % of control | [14] 95 % of control

COc1cc2c(c(OC)c1O)-c1ccc(OC)c(=O)cc1[C@@H](NC(=O)C(F)(F)F)CC2
inactive: dose: 0.62 mg/kg/injection, schedule: Q01DX009 (ip), vehicle: Klucel (hydroxypropylcellulose) (HPC) 119 % of control | dose: 0.63 mg/kg/injection, schedule: Q01DX009 (ip), vehicle: Klucel (hydroxypropylcellulose) (HPC) 122 % of control | dose: 1.25 mg/kg/injection, schedule: Q01DX009 (ip), vehicle: Klucel (hydroxypropylcellulose) (HPC) 118 % of control | dose: 2.5 mg/kg/injection, schedule: Q01DX009 (ip), vehicle: Klucel (hydroxypropylcellulose) (HPC) 120 % of control
active: dose: 4.17 mg/kg/injection, schedule: Q01DX009 (ip), vehicle: Klucel (hydroxypropylcellulose) (HPC) 156 % of control

COc1cc(C2c3cc4c(cc3C(OC3CCCCO3)C3COC(=O)C23)OCO4)cc(OC)c1OC (stereo not given)
inactive: dose: 1.56 mg/kg/injection, schedule: Q01DX009 (ip), vehicle: Klucel (hydroxypropylcellulose) (HPC) 93 % of control | dose: 3.12 mg/kg/injection, schedule: Q01DX009 (ip), vehicle: Klucel (hydroxypropylcellulose) (HPC) 98 % of control

Reference: PubChem BioAssay AID200 (DTP/NCI, 2004)
